{
  "source": "patent US6380195B1",
  "about": "“Method of treating heart failure with endothelin antagonists” (Banyu Pharmaceutical Co., Ltd., priority 1996, dated 2002)",
  "key": {"ET receptor": {"system": "ET receptor", "experiment": "Endothelin-1 (ET-1) challenge before and after Compound 1 in conscious pigs with heart failure", "assay_type": "in vivo, pig", "description": "Hemodynamic experiments were performed after 2 cycles of tachycardic pacing in the presence of myocardial ischemia injury, after the animal had achieved a stable state of heart failure. During the experiments, the pigs were conscious and quietly restrained in a sling. The test compound is dissolved in saturated NaHCO3 (10% by Vol) and 0.9% saline (90% by Vol) at a concentration of 2 mg/ml, was studied in four conscious pigs with heart failure. A dose of 0.5 mg/kg was injected intravenously over a period of 2 minutes, and hemodynamics were continuously recorded before and 90 minutes following injection of the test compound in all 4 pigs. In two of these pigs, recording continued until 3 hours following injection of the test compound. The vehicle was tested on separate days. The effects of 0.1 to 0.5 μg/kg cumulative bolus doses in 0.1 μg/kg steps of endothelin-1 (Peptide Institute, Inc., Osaka, Japan) were also examined on separate days before and 90 minutes after injection of the test compound in three pigs during development of heart failure to characterize the extent of endothelin block by the test compound. ET-1 was dissolved in 0.1 N NaHCO3 ([…]) and 0.9% saline (95% by Vol) at a concentration of 20 μg/ml.\nHemodynamic experiments were performed after 2 cycles of tachycardic pacing in the presence of myocardial ischemia injury, after the animal had achieved a stable state of heart failure. During the experiments, the pigs were conscious and quietly restrained in a sling. Compound 1, dissolved in saturated NaHCO3 (10% by Vol) and 0.9% saline (90% by Vol) at a concentration of 2 mg/ml, was studied in four conscious pigs with heart failure. A dose of 0.5 mg/kg was injected intravenously over a period of 2 minutes, and hemodynamics were continuously recorded before and 90 minutes following injection of Compound 1 in all 4 pigs. In two of these pigs, recording continued until 3 hour following injection of Compound 1. The vehicle was tested on separate days. The effects of 0.1 to 0.5 μg/kg cumulative bolus doses in 0.1 μg/kg steps of endothelin-1 (Peptide Institute, Inc., Osaka, Japan) were also examined on separate days before and 90 minutes after injection of Compound 1 in three pigs during development of heart failure to characterize the extent of ET block by Compound 1. ET-1was dissolved in 0.1 N NaHCO3 ([…]) and 0.9% saline (95% by Vol) at a concentration of 20 μg/ml. For comparative purpose, the effects of intravenous injection of Compound 2 (enalaprilat), at doses of 1 mg/kg and 4 mg/kg, were studied on different days in three of the pigs that were used to study […] and in one additional pig. Compound 2 was dissolved in 0.9% saline."}, "[1]": {"system": "conscious pigs with heart failure", "experiment": "Hemodynamic study in conscious pigs with heart failure (serial myocardial infarctions plus intermittent tachycardic pacing)", "assay_type": "in vivo, pig", "conditions": "for LV End-Diastolic Diameter, change from baseline / LV End-Systolic Diameter, change from baseline / LV Fractional Shortening, change from baseline / Vcf, change from baseline: n = 3; for Cardiac Index, change from baseline / Heart Rate, change from baseline / LV dP/dt, change from baseline / Left Atrial Pressure, change from baseline / Mean Arterial Pressure, change from baseline / Total Peripheral Resistance, change from baseline: n = 4", "description": "Five farm pigs of either of sex and weighing 34.5±2.5 kg were sedated with ketamine hydrochloride (25 mg/kg, i.m.) and xylazine (6 mg/kg, i.m.). After tracheal intubation, general anesthesia was maintained with isoflurane (1.5-2.0 vol % in oxygen). Using sterile surgical technique, a left thoracotomy was performed at the fifth intercostal space. Catheters made of Tygon tubing (Norton Performance Plastics Co., Akron, Ohio) were implanted in the descending aorta, left and right atria for measurement of pressures. A solid-state miniature pressure gauge (Konigsberg Instruments Inc., Pasadena, Calif.) was implanted in the left ventricular (LV) chamber to obtain LV pressure and the rate of change of LV pressure (LV dP/dt). A flow probe (Transonic System Inc., Ithaca, N.Y.) was placed around the main pulmonary artery for measurement of blood flow. One pair of piezoelectric ultrasonic dimension crystals were implanted on opposing anterior and posterior endocardial regions of the LV to measure the short-axis internal diameter. Proper alignment of the endocardial crystals was achieved during surgical implantation by positioning the crystals so as to obtain a signal with the greatest amplitude and shortest transit time. A pacing lead (model 5069, Medtronic Inc., Minneapolis, Minn.) was attached to the right ventricular free wall, and stainless steel pacing leads were attached to the left atrial appendage. The left circumflex coronary artery was isolated and two hydraulic occluders, made of Tygon tubing, were implanted proximally and distally to the first obtuse marginal branch. The wires and catheters were externalized between the scapulae, the incision was closed in layers, and air was evacuated from the chest cavity.\nHemodynamic recordings were made using a data tape recorder (RD-130TE, TEAC, Montebello, Calif.) and a multiple-channel oscillograph (MT95K2, Astro-Med, West Warwick, R.I.). Aortic and left atrial pressures were measured using strain gauge manometers (Statham Instruments, Oxnard, Calif.), which were calibrated in vitro using a mercury manometer, connected to the fluid-filled catheters. The solid-state LV pressure gauge was cross-calibrated with aortic and left atrial pressure measurements. LV dP/dt was obtained by electronically differentiating the LV pressure signal. Blood flow was measured using a volume flow meter (T208, Transonic System Inc., Ithaca, N.Y.). Mean arterial pressure, left atrial pressures, and pulmonary blood flow (cardiac output) were measured using an amplifier filter. Stroke volume was calculated as the quotient of cardiac output and heart rate. Cardiac output was normalized by body weight to yield cardiac index. LV dimension was measured with an ultrasonic transit-time dimension gauge (Model 203, Triton Technology Inc., San Diego, Calif.). Total peripheral resistance was calculated as the quotient of mean arterial pressure and cardiac output. LV short-axis end-diastolic dimension (EDD) was measured at the beginning of the upstroke of the LV dP/dt signal. LV end-systolic dimension (ESD) was measured at the time of maximum negative dP/dt. The percent shortening of LV internal diameter was calculated as (EDD-ESD)/EDD*100. LV mean velocity of circumferential fiber shortening (Vcf) was calculated from the dimension measurements using the following formula:(EDD-ESD)/EDD/Ejection time (sec^−1). Ejection time was measured as the interval between maximum and minimum LV dP/dt. A cardiotachometer triggered by the LV pressure pulse provided instantaneous and continuous records of heart rate.\nExperiments were initiated 10-14 days after surgery, when the pigs were fully recovered from surgery. During the post-operative period, the pigs were introduced to a sling for training. Heart failure was produced by progressive myocardial ischemia induced by two coronary artery occlusions followed by intermittent ventricular pacing."}, "[2]": {"conditions": "ET-1 cumulative i.v. bolus 0.1 to 0.5 μg/kg, without Compound 1"}, "[3]": {"conditions": "0.5 mg/kg i.v., 60 minutes after administration"}, "[4]": {"conditions": "Compound 1 0.5 mg/kg i.v., 15 min"}, "[5]": {"conditions": "Compound 1 0.5 mg/kg i.v., 60 min"}},
  "note": "“Also recorded” adds a separate entry of the source. Marks after values point to notes of the source that are not given here.",
  "data": [
    {"smiles": "CC[C@H](C)[C@H](NC(=O)[C@H](CC(=O)O)NC(=O)[C@H](CC(C)C)NC(=O)[C@H](Cc1c[nH]cn1)NC(=O)[C@@H]1CSSC[C@H](N)C(=O)N[C@@H](CO)C(=O)N[C@H]2CSSC[C@H](NC(=O)[C@H](CCC(=O)O)NC(=O)[C@H](CCCCN)NC(=O)[C@H](CC(=O)O)NC(=O)[C@H](CCSC)NC(=O)[C@H](CC(C)C)NC(=O)[C@H](CO)NC(=O)[C@H](CO)NC2=O)C(=O)N[C@@H](C(C)C)C(=O)N[C@@H](Cc2ccc(O)cc2)C(=O)N[C@@H](Cc2ccccc2)C(=O)N1)C(=O)N[C@H](C(=O)N[C@@H](Cc1c[nH]c2ccccc12)C(=O)O)[C@@H](C)CC", "note": "[ET-1, endothelin-1]", "values": [
      {"measurement": "effect of ET-1 on heart rate", "setting": "ET receptor; [2]", "result": "decreased, but not dose-dependently"},
      {"measurement": "effect of ET-1 on mean arterial pressure", "setting": "ET receptor; [2]", "result": "significant dose-dependent increases"},
      {"measurement": "effect of ET-1 on mean left atrial pressure", "setting": "ET receptor; [2]", "result": "significant dose-dependent increases"},
      {"measurement": "effect of ET-1 on total peripheral resistance", "setting": "ET receptor; [2]", "result": "significant dose-dependent increases"}
    ]},
    {"smiles": "C[C@H](N[C@@H](CCc1ccccc1)C(=O)O)C(=O)N1CCC[C@H]1C(=O)O", "note": "[Compound 2, enalaprilat, reference compound]", "values": [
      {"measurement": "effect on total peripheral resistance (in words)", "setting": "[1]; 1 mg/kg or 4 mg/kg i.v., throughout 90-minute observation period, not dose-dependent", "result": "significantly reduce the total peripheral resistance"}
    ]},
    {"smiles": "CCCCc1ccc2c(n1)[C@@H](c1ccc(OC)cc1CC(C)C(=O)O)[C@H](C(=O)O)[C@H]2c1ccc2c(c1)OCO2", "note": "(relative stereo) [Compound 1, (+)-(5S*, 6R*, 7R*)-2-butyl-6-carboxy-7-[2-(2-carboxypropyl)-4-methoxyphenyl]-5-(3,4-methylenedioxyphenyl)cyclopenteno[1,2-b]pyridine]", "values": [
      {"measurement": "Vcf, increase", "setting": "[1]; 0.5 mg/kg i.v.", "result": "12±2", "unit": "%"},
      {"measurement": "effect on LV dP/dt (in words)", "setting": "[1]; 0.5 mg/kg i.v.", "result": "not affected"},
      {"measurement": "effect on LV end-diastolic diameter (in words)", "setting": "[1]; 0.5 mg/kg i.v.", "result": "not affected"},
      {"measurement": "effect on LV fraction shortening (in words)", "setting": "[1]; 0.5 mg/kg i.v.", "result": "not affected"},
      {"measurement": "effect on LV systolic diameter (in words)", "setting": "[1]; 0.5 mg/kg i.v.", "result": "not affected"},
      {"measurement": "effect on elevated vascular resistance of heart failure (in words)", "setting": "[1]; 0.5 mg/kg i.v.", "result": "complete restoration of the elevated vascular resistance of heart failure back to pre-heart failure control values; also recorded: reduced the elevated vascular resistance"},
      {"measurement": "effect on myocardial contractility (in words)", "setting": "[1]; 0.5 mg/kg i.v.", "result": "did not affect myocardial contractility"},
      {"measurement": "heart rate, increase (in words)", "setting": "[1]; 0.5 mg/kg i.v.", "result": "not statistically significant"},
      {"measurement": "left atrial pressure, decrease (in words)", "setting": "[1]; 0.5 mg/kg i.v.", "result": "not statistically significant"},
      {"measurement": "cardiac index, increase", "setting": "[1]; [3]", "result": "17±4", "unit": "%"},
      {"measurement": "mean arterial pressure, decrease", "setting": "[1]; [3]", "result": "10±2", "unit": "%"},
      {"measurement": "total peripheral resistance, decrease", "setting": "[1]; [3]", "result": "22±3", "unit": "%"},
      {"measurement": "reduction in total peripheral resistance compared with Compound 2 (1 mg/kg or 4 mg/kg i.v.)", "setting": "[1]; Compound 1 0.5 mg/kg i.v.", "result": "greater than that induced by either dose of Compound 2"},
      {"measurement": "LV End-Diastolic Diameter, change from baseline", "setting": "[1]; [4]", "result": "+0.1 ± 0.2 mm"},
      {"measurement": "LV End-Systolic Diameter, change from baseline", "setting": "[1]; [4]", "result": "−0.3 ± 0.3", "unit": "mm"},
      {"measurement": "LV Fractional Shortening, change from baseline", "setting": "[1]; [4]", "result": "+0.6 ± 0.2%"},
      {"measurement": "Vcf, change from baseline", "setting": "[1]; [4]", "result": "0.05 ± 0.01* sec^−1"},
      {"measurement": "Cardiac Index, change from baseline", "setting": "[1]; [4]", "result": "+14 ± 2 ml/min/kg"},
      {"measurement": "Heart Rate, change from baseline", "setting": "[1]; [4]", "result": "+5 ± 5 beat/min"},
      {"measurement": "LV dP/dt, change from baseline", "setting": "[1]; [4]", "result": "+25 ± 40 mmHg/sec"},
      {"measurement": "Left Atrial Pressure, change from baseline", "setting": "[1]; [4]", "result": "−4 ± 2", "unit": "mmHg"},
      {"measurement": "Mean Arterial Pressure, change from baseline", "setting": "[1]; [4]", "result": "−10 ± 1", "unit": "mmHg"},
      {"measurement": "Total Peripheral Resistance, change from baseline", "setting": "[1]; [4]", "result": "−0.25 ± 0.03", "unit": "mmHg/ml/min/kg"},
      {"measurement": "LV End-Diastolic Diameter, change from baseline", "setting": "[1]; [5]", "result": "+0.2 ± 0.3 mm"},
      {"measurement": "LV End-Systolic Diameter, change from baseline", "setting": "[1]; [5]", "result": "−0.2 ± 0.3", "unit": "mm"},
      {"measurement": "LV Fractional Shortening, change from baseline", "setting": "[1]; [5]", "result": "+0.7 ± 0.2%"},
      {"measurement": "Vcf, change from baseline", "setting": "[1]; [5]", "result": "+0.07 ± 0.02* sec^−1"},
      {"measurement": "Cardiac Index, change from baseline", "setting": "[1]; [5]", "result": "+13 ± 2 ml/min/kg"},
      {"measurement": "Heart Rate, change from baseline", "setting": "[1]; [5]", "result": "+7 ± 5 beat/min"},
      {"measurement": "LV dP/dt, change from baseline", "setting": "[1]; [5]", "result": "56 ± 65", "unit": "mmHg/sec"},
      {"measurement": "Left Atrial Pressure, change from baseline", "setting": "[1]; [5]", "result": "−2 ± 2", "unit": "mmHg"},
      {"measurement": "Mean Arterial Pressure, change from baseline", "setting": "[1]; [5]", "result": "−8 ± 1", "unit": "mmHg"},
      {"measurement": "Total Peripheral Resistance, change from baseline", "setting": "[1]; [5]", "result": "−0.24 ± 0.05", "unit": "mmHg/ml/min/kg"},
      {"measurement": "hemodynamic responses to ET-1 after administration of the antagonist", "setting": "ET receptor; Compound 1 0.5 mg/kg i.v., ET-1 cumulative i.v. bolus, total dose 0.5 μg/kg", "result": "markedly attenuated"}
    ]}
  ]
}
